Results taken from PubChem BioAssay (NCI).
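Assay format: 96-well plates, 48-hour exposure. At the TGI there is no net growth.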

Tests used:
Experiment in all cases: NCI-60 cell line screen, 48 h
T-47D breast = tested on: T-47D breast
HCT-116 colon = tested on: HCT-116 colon
SN12C renal = tested on: SN12C renal
TK-10 renal = tested on: TK-10 renal
OVCAR-4 ovarian = tested on: OVCAR-4 ovarian
UACC-257 melanoma = tested on: UACC-257 melanoma
LOX IMVI melanoma = tested on: LOX IMVI melanoma
M14 melanoma = tested on: M14 melanoma
DU-145 prostate = tested on: DU-145 prostate
HCC-2998 colon = tested on: HCC-2998 colon
K-562 leukemia = tested on: K-562 leukemia
A549 NSCLC = tested on: A549 NSCLC
MDA-MB-435 = tested on: MDA-MB-435
COLO 205 colon = tested on: COLO 205 colon
SK-MEL-28 melanoma = tested on: SK-MEL-28 melanoma
PC-3 prostate = tested on: PC-3 prostate
NCI-H522 lung = tested on: NCI-H522 lung
KM12 colon = tested on: KM12 colon
SNB-75 CNS = tested on: SNB-75 CNS
NCI/ADR-RES ovarian = tested on: NCI/ADR-RES ovarian
HT29 colon = tested on: HT29 colon
NCI-H460 lung = tested on: NCI-H460 lung
MDA-MB-231 breast = tested on: MDA-MB-231 breast
HL-60(TB) leukemia = tested on: HL-60(TB) leukemia
OVCAR-3 ovarian = tested on: OVCAR-3 ovarian
IGROV1 ovarian = tested on: IGROV1 ovarian
A498 renal = tested on: A498 renal
RXF 393 renal = tested on: RXF 393 renal
SK-OV-3 ovarian = tested on: SK-OV-3 ovarian
HOP-92 NSCLC = tested on: HOP-92 NSCLC
NCI-H226 lung = tested on: NCI-H226 lung
RPMI-8226 leukemia = tested on: RPMI-8226 leukemia
OVCAR-8 ovarian = tested on: OVCAR-8 ovarian
SF-539 CNS = tested on: SF-539 CNS
HCT-15 colon = tested on: HCT-15 colon
U251 CNS = tested on: U251 CNS
SW-620 colon = tested on: SW-620 colon
MCF7 breast = tested on: MCF7 breast
SK-MEL-2 melanoma = tested on: SK-MEL-2 melanoma
MDA-N = tested on: MDA-N
OVCAR-5 ovarian = tested on: OVCAR-5 ovarian
SF-268 CNS = tested on: SF-268 CNS
MOLT-4 leukemia = tested on: MOLT-4 leukemia
CAKI-1 renal = tested on: CAKI-1 renal
SNB-19 CNS = tested on: SNB-19 CNS
786-0 renal = tested on: 786-0 renal
EKVX NSCLC = tested on: EKVX NSCLC
HS 578T breast = tested on: HS 578T breast
SK-MEL-5 melanoma = tested on: SK-MEL-5 melanoma
SR leukemia = tested on: SR leukemia
MALME-3M melanoma = tested on: MALME-3M melanoma
UACC-62 melanoma = tested on: UACC-62 melanoma
HOP-62 NSCLC = tested on: HOP-62 NSCLC
UO-31 renal = tested on: UO-31 renal
ACHN renal = tested on: ACHN renal
SF-295 CNS = tested on: SF-295 CNS
CCRF-CEM leukemia = tested on: CCRF-CEM leukemia
NCI-H23 lung = tested on: NCI-H23 lung

CCCCCCCCCCCCCCCCCCOCC(CO[P+](=O)O)OCCCCCCCCCCCCCCCCCC (stereo not drawn)
TGI (T-47D breast): > 50 µM
TGI (HCT-116 colon): > 50 µM
TGI (SN12C renal): > 50 µM
TGI (TK-10 renal): > 50 µM
TGI (OVCAR-4 ovarian): > 50 µM
TGI (UACC-257 melanoma): > 50 µM
TGI (LOX IMVI melanoma): > 50 µM
TGI (M14 melanoma): > 50 µM
TGI (DU-145 prostate): > 50 µM
TGI (HCC-2998 colon): > 50 µM
TGI (K-562 leukemia): > 50 µM
TGI (A549 NSCLC): > 50 µM
TGI (MDA-MB-435): > 50 µM
TGI (COLO 205 colon): > 50 µM
TGI (SK-MEL-28 melanoma): > 50 µM
TGI (PC-3 prostate): > 50 µM
TGI (NCI-H522 lung): > 50 µM
TGI (KM12 colon): > 50 µM
TGI (SNB-75 CNS): > 50 µM
TGI (NCI/ADR-RES ovarian): > 50 µM
TGI (HT29 colon): > 50 µM
TGI (NCI-H460 lung): > 50 µM
TGI (MDA-MB-231 breast): > 50 µM
TGI (HL-60(TB) leukemia): > 50 µM
TGI (OVCAR-3 ovarian): > 50 µM
TGI (IGROV1 ovarian): > 50 µM
TGI (A498 renal): > 50 µM
TGI (RXF 393 renal): > 50 µM
TGI (SK-OV-3 ovarian): > 50 µM
TGI (HOP-92 NSCLC): > 50 µM
TGI (NCI-H226 lung): > 50 µM
TGI (RPMI-8226 leukemia): > 50 µM
TGI (OVCAR-8 ovarian): > 50 µM
TGI (SF-539 CNS): > 50 µM
TGI (HCT-15 colon): > 50 µM
TGI (U251 CNS): > 50 µM
TGI (SW-620 colon): > 50 µM
TGI (MCF7 breast): > 50 µM
TGI (SK-MEL-2 melanoma): > 50 µM
TGI (MDA-N): > 50 µM
TGI (OVCAR-5 ovarian): > 50 µM
TGI (SF-268 CNS): > 50 µM
TGI (MOLT-4 leukemia): > 50 µM
TGI (CAKI-1 renal): > 50 µM
TGI (SNB-19 CNS): > 50 µM
TGI (786-0 renal): > 50 µM
TGI (EKVX NSCLC): > 50 µM
TGI (HS 578T breast): > 50 µM
TGI (SK-MEL-5 melanoma): > 50 µM
TGI (SR leukemia): > 50 µM

Nc1ncnc2c1ncn2C1OC(CO)=CC1O (stereo not drawn)
TGI (T-47D breast): > 37.5 µM
TGI (HCT-116 colon): > 37.5 µM
TGI (MALME-3M melanoma): > 37.5 µM
TGI (SN12C renal): > 37.5 µM
TGI (TK-10 renal): > 37.5 µM
TGI (OVCAR-4 ovarian): > 37.5 µM
TGI (UACC-257 melanoma): > 37.5 µM
TGI (LOX IMVI melanoma): > 37.5 µM
TGI (M14 melanoma): > 37.5 µM
TGI (DU-145 prostate): > 37.5 µM
TGI (HCC-2998 colon): > 37.5 µM
TGI (K-562 leukemia): > 37.5 µM
TGI (A549 NSCLC): > 37.5 µM
TGI (MDA-MB-435): > 37.5 µM
TGI (COLO 205 colon): > 37.5 µM
TGI (UACC-62 melanoma): > 37.5 µM
TGI (HOP-62 NSCLC): > 37.5 µM
TGI (SK-MEL-28 melanoma): > 37.5 µM
TGI (PC-3 prostate): > 37.5 µM
TGI (NCI-H522 lung): > 37.5 µM
TGI (KM12 colon): > 37.5 µM
TGI (UO-31 renal): > 37.5 µM
TGI (SNB-75 CNS): > 37.5 µM
TGI (ACHN renal): > 37.5 µM
TGI (SF-295 CNS): > 37.5 µM
TGI (NCI/ADR-RES ovarian): > 37.5 µM
TGI (CCRF-CEM leukemia): > 37.5 µM
TGI (HT29 colon): > 37.5 µM
TGI (NCI-H460 lung): > 37.5 µM
TGI (MDA-MB-231 breast): > 37.5 µM
TGI (HL-60(TB) leukemia): > 37.5 µM
TGI (OVCAR-3 ovarian): > 37.5 µM
TGI (IGROV1 ovarian): > 37.5 µM
TGI (A498 renal): > 37.5 µM
TGI (RXF 393 renal): > 37.5 µM
TGI (SK-OV-3 ovarian): > 37.5 µM
TGI (HOP-92 NSCLC): > 37.5 µM
TGI (NCI-H226 lung): > 37.5 µM
TGI (RPMI-8226 leukemia): > 37.5 µM
TGI (NCI-H23 lung): > 37.5 µM
TGI (OVCAR-8 ovarian): > 37.5 µM
TGI (SF-539 CNS): > 37.5 µM
TGI (HCT-15 colon): > 37.5 µM
TGI (U251 CNS): > 37.5 µM
TGI (SW-620 colon): > 37.5 µM
TGI (MCF7 breast): > 37.5 µM
TGI (SK-MEL-2 melanoma): > 37.5 µM
TGI (MDA-N): > 37.5 µM
TGI (OVCAR-5 ovarian): > 37.5 µM
TGI (SF-268 CNS): > 37.5 µM
TGI (MOLT-4 leukemia): > 37.5 µM
TGI (CAKI-1 renal): > 37.5 µM
TGI (SNB-19 CNS): > 37.5 µM
TGI (786-0 renal): > 37.5 µM
TGI (EKVX NSCLC): > 37.5 µM
TGI (HS 578T breast): > 37.5 µM
TGI (SK-MEL-5 melanoma): > 37.5 µM
TGI (SR leukemia): > 37.5 µM
